{"source": "patent US10939692B2", "about": "“Method for culturing aquatic animals with aspartyl-dipeptides” (Cysal GmbH, priority 2015, dated 2021)", "assay_type_in_all_cases": "in vivo", "key": {"Marsupenaeus japonicus": {"test_system": "Marsupenaeus japonicus", "assay": "Aquaculture screening experiment, kuruma shrimp growth on arginine-limited basal diet", "settings": "after two months", "from_the_text": "Nearly all of the […] species relevant to aquaculture belong to three supra-orders: Ostariophysi ([…], catfish, and allies), Protacanthopterygii (e.g. pike, trouts and salmon), and Acanthopterygii (around 50% of all fish species, including all […], flatfish, tuna, etc.). In order to cover as much of the phylogenetic range as possible, fish species were chosen from each of these supra-orders (Ostariophysi; Clarias gariepinus, Protacanthopterygii; Oncorhychus mykiss, Acanthopterygii; Oreochromis niloticus). Additionally, kuruma shrimp (Marsupenaeus japonicus) was chosen as a representative species of crustacean due to its significance in the high-end market. At the end of the experiment, the individual weights were recorded and the data analyzed statistically. All experiments started with young fry or postlarvae. […] Water quality (oxygen levels, nitrite, and nitrate) was monitored weekly. […] Basal diet composition for Tilapia and Kuruma shrimp contained a calculated arginine content of about 1.35% (of diet) which is lower than the minimum requirements of both Tilapia and Kuruma shrimp: corn 40%, soybean meal 21%, rice polishings 14%, gluten 11%, wheat bran 5%, herring meal 5%, monocalcium phosphate 0.8%, limestone 0.7%, L-lysine HCl 0.7%, fish oil 0.5%, vitamin mineral premix 0.3%, sodium bicarbonate 0.15%, salt 0.15%, pellet binder 0.05%. […]"}, "Oncorhynchus mykiss": {"test_system": "Oncorhynchus mykiss", "assay": "Aquaculture screening experiment, trout growth on arginine-limited basal diet", "settings": "after four months", "from_the_text": "(§1) Nearly all of the […] species relevant to aquaculture belong to three supra-orders: Ostariophysi ([…], catfish, and allies), Protacanthopterygii (e.g. pike, trouts and salmon), and Acanthopterygii (around 50% of all fish species, including all […], flatfish, tuna, etc.). In order to cover as much of the phylogenetic range as possible, fish species were chosen from each of these supra-orders (Ostariophysi; Clarias gariepinus, Protacanthopterygii; Oncorhychus mykiss, Acanthopterygii; Oreochromis niloticus). Additionally, kuruma shrimp (Marsupenaeus japonicus) was chosen as a representative species of crustacean due to its significance in the high-end market. At the end of the experiment, the individual weights were recorded and the data analyzed statistically. All experiments started with young fry or postlarvae. All species except trout were housed during the experiments in parallel recirculation systems of fresh water. Marsupenaeus japonicus shrimp were maintained in seawater. Oreochromis niloticus and Clarias gariepinus were housed in 200-L tanks filtered by a commercial pond filter. Trout were housed in a smaller system composed of 70-l tanks connected in series to account for the species' higher oxygen demand and preference for stronger current. Water quality (oxygen levels, nitrite, and nitrate) was monitored weekly. Partial water replacements were performed if the desired levels were exceeded. (<3 mg O2/l, detectable nitrite, >25 mg/l nitrate). In order to examine the efficiency of dipeptide products after as feed supplements for aquaculture, β-L-aspartyl-arginine as obtained in Example 1 was used in combination with basal arginine-limited diets. The latter diets were supplemented with the said dipeptide products to a concentration of 1.25 or 2.5% (wt/wt), or with corresponding isonitrogenous concentrations of an aspartic acid-arginine mixture (to determine the effect of free amino acids alone). Basal diets were formulated from individual components in common use in the aquaculture feed industry to ensure realistic conditions. […]"}, "Clarias gariepinus": {"test_system": "Clarias gariepinus", "assay": "Aquaculture screening experiment, African catfish growth on arginine-limited basal diet", "settings": "after four months", "from_the_text": "as §1"}, "[1]": {"test_system": "Atlantic salmon (Salmo salar L.)", "assay": "Salmon nutrition experiment (bioavailability, arginine retention, growth, safety)", "from_the_text": "The objective of the experiment was to examine the in vivo bioavailability of the above described “β-L-aspartyl-R” dipeptides in fish for the first time and consequently to determine their applicability as a substitute of free amino acids sources in Atlantic salmon (Salmo salar L.) nutrition. Therefore, varying supplementation levels of β-L-aspartyl-L-arginine in contrast to a mixture of free amino acids L-arginine and L-aspartic acid were compared.\n315 Atlantic salmon (96.33 g±11.47 g; Danish Salmon AS, Hirtshals, DK) were acclimatized for 14 d in the experimental rearing system. The tanks of the system were part of a recirculation system (3.5 m^3 water volume, turnover rate 2 h^−1). The water purification system consisted of a mechanical filter, a moving bed filter, and a protein skimmer. Water quality parameters were maintained within a safe range for the fish (7.2-7.6 pH; GMH 3530, Digital pH-/mV-/Thermometer, Greisinger electronic, D; 22.5±0.3° C., 8.5±0.4 mg/l O2; Handy Polaris; Oxy-Guard International A/S, Birkerod, Denmark; <0.4 mg/l NH4—N; <0.24 mg/l NO2—N; Microquant test kit for NH4 and NO2; Merck KgaA, Darmstadt, Germany). The light conditions were set to 14 h/10 h light/dark cycle. During acclimatization fish were fed a commercial salmon feed (Aller Gold 4 mm; AllerAqua A/S, Christiansfeld, Denmark). The fish were reared in 150 l aquaria. Triplicate fish groups (3×15) were fed to apparent satiation twice a day over a period of 10 weeks.\nIn order to fulfill the nutritional demands of Atlantic salmon (except for arginine content), the different concentrations of the test substances were added to a basal diet which was produced with the following common ingredients used for fish nutrition: Fish meal (Clupea sp.) 9.91%, Blood meal 1.93%, Casein 3.05%, Corn gluten 20.80%, Wheat gluten 22.09%, Biolysine™ 1.48%, Wheat starch 25.43%, Fish oil 11.13%, Ca2PO4 0.46%, Vit/min premix 0.93%, TiO2 0.93%, and Carboxymethyl cellulose ad 100% (after adding the test supplements). The experiment was carried out with the resulting 7 dietary treatments:\nSamples of all experimental groups were analyzed for arginine retention in the lab of LUFA in Kiel. […] Crude protein content (N×6.25) was determined by the Kjeldahl method, crude lipid content after hydrolysis with hydrochloric acid followed by a petroleum ether extraction using a Soxhlet extraction system, DM after drying at 103° C. until constant weight, and ash content after 4 h incineration at 550° C. in a combustion oven (P300; Nabertherm, Lilienthal, Germany). Furthermore, gross energy was measured in a bomb calorimeter (C 200; IKA, Staufen, Germany).\nThe statistical analyses were performed using SPSS 21.0 for Windows (SPSS Inc., Chicago, U.S.). […] Data were analyzed for variance homogeneity by Levene (p<0.05). […]"}, "Oreochromis niloticus": {"test_system": "Oreochromis niloticus", "assay": "Aquaculture screening experiment, Tilapia growth on arginine-limited basal diet", "settings": "after two months", "from_the_text": "Nearly all of the […] species relevant to aquaculture belong to three supra-orders: Ostariophysi ([…], catfish, and allies), Protacanthopterygii (e.g. pike, trouts and salmon), and Acanthopterygii (around 50% of all fish species, including all […], flatfish, tuna, etc.). In order to cover as much of the phylogenetic range as possible, fish species were chosen from each of these supra-orders (Ostariophysi; Clarias gariepinus, Protacanthopterygii; Oncorhychus mykiss, Acanthopterygii; Oreochromis niloticus). Additionally, kuruma shrimp (Marsupenaeus japonicus) was chosen as a representative species of crustacean due to its significance in the high-end market. At the end of the experiment, the individual weights were recorded and the data analyzed statistically. All experiments started with young fry or postlarvae. All species except trout were housed during the experiments in parallel recirculation systems of fresh water. Marsupenaeus japonicus shrimp were maintained in seawater. Oreochromis niloticus and Clarias gariepinus were housed in 200-L tanks filtered by a commercial pond filter. Trout were housed in a smaller system composed of 70-l tanks connected in series to account for the species' higher oxygen demand and preference for stronger current. Water quality (oxygen levels, nitrite, and nitrate) was monitored weekly. Partial water replacements were performed if the desired levels were exceeded. (<3 mg O2/l, detectable nitrite, >25 mg/l nitrate). […] Basal diet composition for Tilapia and Kuruma shrimp contained a calculated arginine content of about 1.35% (of diet) which is lower than the minimum requirements of both Tilapia and Kuruma shrimp: corn 40%, soybean meal 21%, rice polishings 14%, gluten 11%, wheat bran 5%, herring meal 5%, monocalcium phosphate 0.8%, limestone 0.7%, L-lysine HCl 0.7%, fish oil 0.5%, vitamin mineral premix 0.3%, sodium bicarbonate 0.15%, salt 0.15%, pellet binder 0.05%. […]"}}}
{"molecule": "N=C(N)NCCC[C@H](NC(=O)C[C@H](N)C(=O)O)C(=O)O", "note": "[Asp-Arg, β-L-aspartyl-L-arginine]", "values": [{"measurement": "average weight versus amino acid feeding and control", "setting": "Marsupenaeus japonicus; 1.25%", "result": "higher than that of the amino acid feeding and that of the control group"}, {"measurement": "mean", "setting": "Marsupenaeus japonicus; 1.25% supplement in basal diet, average weight", "result": 0.35, "unit": "g"}, {"measurement": "mean (wt in g)", "setting": "Oncorhynchus mykiss; 1.25% supplement in basal diet", "result": 13.63, "unit": "g"}, {"measurement": "mean (wt in g)", "setting": "Oncorhynchus mykiss; 2.5% supplement in basal diet", "result": 15.33, "unit": "g"}, {"measurement": "average final weight, % of the control", "setting": "Oncorhynchus mykiss; feed containing 2.5% dipeptides", "result": "around 115 % of the control"}, {"measurement": "mean (wt in g)", "setting": "Clarias gariepinus; 1.25% (wt/wt) supplement in basal diet", "result": 6.63, "unit": "g"}, {"measurement": "mean (wt in g)", "setting": "Clarias gariepinus; 2.5% (wt/wt) supplement in basal diet", "result": 8.42, "unit": "g"}, {"measurement": "average final weight, % of the control", "setting": "Clarias gariepinus; addition of dipeptides", "result": "around 144 % of the control"}, {"measurement": "safety (mortalities, behavior, postmortem inspection, tissue and blood analysis)", "setting": "[1]; Atlantic salmon, 0.2-0.6% in diet, 10 weeks", "result": "safe for fish"}, {"measurement": "weight gain at the highest level of supplementation", "setting": "[1]; Atlantic salmon, 0.6% supplementation, 10 weeks (FIG. 1)", "result": "not seen"}, {"measurement": "whole body protein level", "setting": "[1]; Atlantic salmon, 10 weeks, compared to the free amino acid groups", "result": "higher body protein level"}, {"measurement": "bioavailability of the dipeptide form versus the free form", "setting": "[1]; in vivo", "result": "five-fold better"}, {"measurement": "mean (wt in g)", "setting": "Oreochromis niloticus; 1.25% supplement in basal diet", "result": 1.84, "unit": "g"}, {"measurement": "mean (wt in g)", "setting": "Oreochromis niloticus; 2.5% supplement in basal diet", "result": 2.03, "unit": "g"}, {"measurement": "final weight, % of the control", "setting": "Oreochromis niloticus; feed supplemented with 2.5% dipeptide", "result": "over 120 % of the control"}]}
